Data published in PubChem BioAssay (NCI).
Where “and” joins values, the source holds several entries; their conditions need not be identical. Identical values can stand only once.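 Interpolation was linear, between the two tested concentrations surrounding the appropriate level; five concentrations were tested over 48 hours in 96-well plates. GI50 marks 50% less growth. TGI denotes the concentration required for complete inhibition of growth.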 Where a SMILES comes first, the peptide text is derived from it. The star is where a group is joined. Boc = CC(C)(C)OC(=O)*; nBu = CCCC*

Assays:
Assay in all cases: inhibition of tumour cell growth, NCI panel, 48 h
UO-31 renal = system: UO-31 renal
MOLT-4 leukemia = system: MOLT-4 leukemia
CAKI-1 renal = system: CAKI-1 renal
K-562 leukemia = system: K-562 leukemia
UACC-257 melanoma = system: UACC-257 melanoma
OVCAR-4 ovarian = system: OVCAR-4 ovarian
SNB-78 CNS = system: SNB-78 CNS
DMS 273 small cell lung = system: DMS 273 small cell lung
M19-MEL melanoma = system: M19-MEL melanoma
XF 498 CNS = system: XF 498 CNS
DMS 114 small cell lung = system: DMS 114 small cell lung
LXFL 529 NSCLC = system: LXFL 529 NSCLC

SMILES | TGI (UO-31 renal) | TGI (MOLT-4 leukemia) | TGI (CAKI-1 renal) | TGI (K-562 leukemia) | TGI (UACC-257 melanoma) | TGI (OVCAR-4 ovarian) | further results
N#C/C(=C(/O)CCl)c1nc2ccccc2o1 | 12.7 µM | 10.3 µM | 22.6 µM | 9.36 µM | 13.2 µM | 3.97 µM | 
CC1(C)OC[C@@H]([C@@]2(COC(c3ccccc3)(c3ccccc3)c3ccccc3)CC=CC(=O)O2)O1 | > 100 µM | 98.2 µM | > 100 µM | > 100 µM | > 100 µM | > 100 µM | 
Oc1ccccc1C=Nc1ccc(-c2nc3ccccc3s2)cc1 | > 100 µM | > 100 µM | > 100 µM | > 100 µM | 67.5 µM | > 100 µM | 
O=C(Cc1nc2ccccc2[nH]c1=O)c1c[nH]c2ccccc12 | 33.7 µM | > 100 µM | 63.4 µM | > 100 µM | > 100 µM | 72.2 µM | 
Cc1cc(-c2nc3c(F)cccc3s2)ccc1N | > 100 µM | 63.9 µM | > 100 µM | > 100 µM | > 100 µM | > 100 µM | GI50 (OVCAR-4 ovarian): 20.9 µM
C=C1C(O)C2(O)OCC34C(CC5C(C)=CC(=O)C(O)C5(C)C23)OC(=O)C(OC(=O)C/C=C/CCCCCCCC)C14 (stereo not given) | 0.231 µM | 0.533 µM | 0.232 µM | 0.251 µM |  |  | TGI (SNB-78 CNS): 0.057 µM; TGI (DMS 273 small cell lung): 0.0964 µM; TGI (M19-MEL melanoma): 0.0244 µM; TGI (XF 498 CNS): 0.0351 µM; TGI (DMS 114 small cell lung): 0.0205 µM
COC(=O)/C=C\C(C#N)(C#N)N=Cc1ccc(OC)cc1 | 5.96 µM | 4.39 µM | 4.48 µM | > 58.6 µM | 11.6 µM | 12.8 µM | 
COc1ccc(C2C3CCc4ccccc4C3=NN2S(=O)(=O)c2cccc(C(=O)O)c2OC)cc1 (stereo not given) | > 100 µM | > 100 µM | > 100 µM | > 100 µM |  | > 100 µM | 
CC(C)CC(N)C(=O)NC(C(=O)NC(CCCNC(=N)N)C(=O)NC(CS)C(=O)NC1CSCC(C(=O)NC(Cc2ccccc2)C(=O)NC(C(=O)NC(CCCNC(=N)N)C(=O)O)C(C)C)NC(=O)C2CCCN2C(=O)C(CCCCN)NC(=O)C2CCCN2C(=O)C2CCCN2C(=O)C(Cc2ccc(O)cc2)NC(=O)C(CO)NC(=O)C(CCCCN)NC(=O)C(C(C)O)NC(=O)C(Cc2c[nH]c3ccccc23)NC1=O)C(C)C (stereo not given) | > 25 µM | > 25 µM | > 25 µM | > 25 µM | > 25 µM | > 25 µM | 
COC(=O)c1c(O)ccc2c1c1cc3ccccc3c(O)c1n2CCc1ccc(OC)c(OC)c1 | > 100 µM | > 100 µM | > 100 µM | > 100 µM | > 100 µM | > 100 µM | 
Cc1c(-c2ccccc2)[nH]c2cn[nH]c(=O)c12 | > 100 µM | > 100 µM | > 100 µM | > 100 µM | > 100 µM |  | 
CCCCOc1ccc(CC(NC(=O)OC(C)(C)C)C(=O)NC(C)C(=O)NC(Cc2ccccc2)C(=O)NCC(N)=O)cc1 (stereo not given) (Boc-Y(nBu)AFG-NH2; configuration not given here) | > 100 µM | 53.3 µM | > 100 µM | > 100 µM | > 100 µM | > 100 µM | 
Cc1ccc(-c2cn3c(nc4ccccc43)c(/C=C/c3ccco3)n2)cc1 | > 100 µM |  |  | > 100 µM | > 100 µM | > 100 µM | 
C/C(C=O)=C/[C@@]1(C)O[C@@H](C)[C@@](C)(O)[C@@H]1O | 4.71 µM | 25.7 µM | 37.1 µM | > 100 µM | > 100 µM | > 100 µM | 
C#C[C@]1(O)CC[C@H]2[C@@H]3CCc4cc(O)ccc4[C@H]3CC[C@@]21C |  | > 100 µM | > 100 µM |  | > 100 µM |  | TGI (LXFL 529 NSCLC): > 100 µM; TGI (SNB-78 CNS): > 100 µM; TGI (M19-MEL melanoma): 57.2 µM; TGI (XF 498 CNS): 98 µM; TGI (DMS 114 small cell lung): > 100 µM
O=C(Nc1ccccc1)Oc1ccc(C(=S)Nc2ccc(Br)cc2)cc1 |  | 66.2 µM | 41 µM | > 100 µM | 67.1 µM | 86.3 µM | 

SMILES | TGI (UO-31 renal) | TGI (MOLT-4 leukemia) | TGI (CAKI-1 renal) | TGI (K-562 leukemia) | TGI (UACC-257 melanoma) | TGI (OVCAR-4 ovarian) | further results
O=C1c2c(Br)sc(Br)c2[C@@H](O)[C@H]1O | 32.3 µM | 32.6 µM | 33.7 µM | > 36.8 µM | 29.3 µM | 29.5 µM | 
CN(C)c1ccc(-c2ccc(-c3ccc(C(=N)N)cn3)o2)cc1 | 2.91 µM |  |  |  | 3.43 µM |  | GI50 (UO-31 renal): 1.48 µM; GI50 (UACC-257 melanoma): 1.77 µM
COc1ccc(N2C(=O)C(=O)C3(CCCCC3)C2=O)c2ccccc12 | > 10 µM | > 10 µM | > 10 µM | > 10 µM |  | > 10 µM | 
O=c1c2cc(O)ccc2n2nnc3ccc(NCCNCCO)c1c32 | > 100 µM and 70.2 µM |  | 43 µM and > 61.9 µM | > 62.8 µM and 14.7 µM | 53.8 µM and 20.7 µM | 33.2 µM and 15.9 µM | TGI (LXFL 529 NSCLC): 18.1 µM and 13 µM; GI50 (MOLT-4 leukemia): 1.83 µM and 0.205 µM; GI50 (SNB-78 CNS): 4.78 µM and 2.11 µM; TGI (SNB-78 CNS): > 55.9 µM and 14.4 µM; GI50 (K-562 leukemia): 6.58 µM and 2.59 µM; TGI (DMS 273 small cell lung): > 59.3 µM; GI50 (M19-MEL melanoma): 6.8 µM and 2.68 µM; TGI (M19-MEL melanoma): 20.7 µM and 12.1 µM; TGI (XF 498 CNS): 12.4 µM; GI50 (UACC-257 melanoma): 20.5 µM and 6.76 µM; TGI (DMS 114 small cell lung): 14.8 µM and 9.51 µM
CC(=O)c1ccc(Nc2c3ccccc3nc3occc23)cc1 | > 100 µM | 32.2 µM | 4.68 µM | > 100 µM | 48.8 µM |  | 
O=[N+]([O-])c1ccc(N=Nc2c(O)[nH]c3ccccc23)c([N+](=O)[O-])c1 | 36.6 µM | > 100 µM | 43.9 µM | > 100 µM | 34.6 µM | 30.7 µM | 
COc1ccccc1-c1c(C#N)c(N)[nH]c(=S)c1C#N | > 100 µM | > 100 µM | > 100 µM | > 100 µM | > 100 µM | > 100 µM | 
Cc1ccc(-c2cc(-c3ccc(Cl)cc3)nc(/N=C3\C(=O)N(CN(C)C)c4ccccc43)n2)cc1 | > 100 µM | 33.5 µM | > 100 µM | > 100 µM | 94.7 µM | > 100 µM | 
Nc1nc(SCC(=O)c2ccc(Br)cc2)c2[nH]cnc2n1 | > 100 µM |  | > 100 µM | > 100 µM | > 100 µM | > 100 µM | 
COc1cccc(C23CCN(C)C(CC(O)C2)C3)c1OC (stereo not given) | > 100 µM | > 100 µM | > 100 µM | > 100 µM | > 100 µM | > 100 µM | 
CN1CCC(C(O)(c2ccccc2)c2ccc(Br)cc2)CC1 (stereo not given) | 33.1 µM | 61.3 µM | > 100 µM | 35.9 µM | 29.7 µM | > 100 µM | 
O=P(NCCCO)(OCc1ccccc1)N(CCCl)CCCl (stereo not given) | > 100 µM | > 100 µM | > 100 µM | > 100 µM | > 100 µM | > 100 µM | TGI (SNB-78 CNS): > 100 µM; TGI (DMS 273 small cell lung): > 100 µM; TGI (M19-MEL melanoma): > 100 µM; TGI (XF 498 CNS): > 100 µM
COc1ccc2nc3cc(Cl)ccc3c(NCCCN3CCN(CCCNc4ccc5nnn6c7ccccc7c(=O)c4c56)CC3)c2c1 | > 25 µM | > 25 µM | > 15.8 µM | > 25 µM | > 25 µM | > 25 µM | 
COc1ccc(CCn2cncn2)cc1 | > 100 µM | > 100 µM |  | > 100 µM | > 100 µM | > 100 µM | TGI (LXFL 529 NSCLC): > 100 µM; TGI (SNB-78 CNS): > 100 µM; TGI (DMS 273 small cell lung): > 100 µM; TGI (M19-MEL melanoma): > 100 µM; TGI (DMS 114 small cell lung): > 100 µM
CCCCCCCCCCCCCCCc1nc(=S)[nH][nH]1 | > 100 µM | > 100 µM |  | > 100 µM | > 100 µM | > 100 µM | TGI (LXFL 529 NSCLC): > 100 µM; TGI (SNB-78 CNS): > 100 µM; TGI (M19-MEL melanoma): > 100 µM; TGI (XF 498 CNS): > 100 µM; TGI (DMS 114 small cell lung): > 100 µM
CCOc1nc2c(N3CCCC3)nc(N3CCNCC3)nc2nc1NCc1ccccc1 | 2.6 µM | 2.8 µM | 6.71 µM | 2.61 µM | 3.25 µM | 6.05 µM | 
